# Patent US11807835B2, “Detergent compositions containing a stabilized enzyme by phosphonates” (ECOLAB USA INC., priority 2016, dated 2023)
# Test system: lipase
# Assay: Lipase activity retention in detergent use solution (4000 ppm, 5 GPG water; p-nitrophenyl valerate, TRIS buffer pH 8.0)
# Assay type: biochemical
# Conditions: for Relative Lipase Enzyme Activity in a Use Solution of the All Ash Detergent Composition: Table 6F, 120º F.; for Relative Lipase Enzyme Activity: base formula
# Procedure: The enzyme […] collected up to 4 hours, after a use solution was generated from the detergent composition. During the tests, the samples at different time points were collected and immediately frozen in an acetone/dry ice bath and stored in −80° C. before the activity of the enzyme was evaluated. For the use of such an assay, t=0 min was the reference point for 100% enzyme activity.
# Assays of enzyme activity in formulations (% retention) were conducted to simulate a presoak condition in a beaker using the chemistry, temperature, and pH conditions relevant to manual warewash or presoak applications. Enzyme activity is an indicator of the stability of the enzyme in the detergent, specifically in an aqueous use solution within a sump (which is under conditions of high pH, temperature and dilution).
# Enzyme activity under presoak or manual warewash conditions was traced quantitatively using a standard protease assay. Samples were prepared under bench top conditions, whereby the use solution from a detergent composition or detergent was obtained and maintained at a presoak or manual warewash temperature in a stirring water bath. After the time course for assessing enzyme stability is initiated, aliquots were taken at various time points and flash-frozen. A time=0 sample was prepared for each series by dissolving the detergent formulation at room temperature, mixing thoroughly, and flash freezing. Samples were thawed and diluted as necessary in an assay buffer usually for use in the protease assay. A glycine buffer at pH 9.0 is used here. The assay monitored the direct reaction of the protease on a small, commercially available peptidyl substrate, with liberation of the product providing correlation to the active enzyme content. The product was detected using a plate reader with an appreciable dynamic range (upper absorbance limit of the instrument >3.5). Enzyme activity levels were assessed relative to a calibration curve with average values for replicate tests used to map protease stability under presoak or manual warewash use conditions. Enzyme retention at each time point was calculated as the % enzyme activity relative to the time=0 sample.
# The analysis by lipase and amylase assay was conducted similarly, except with a different substrate and buffers. For lipase activity, the substrate is p-nitrophenyl valerate, and for amylase, the substrate is an ethylidene substrate (EPS). The buffer used in lipase assay is TRIS (Tris(hydroxymethyl)aminomethane) buffer at pH 8.0, and in amylase assay HEPES (4-(2-hydroxyethyl)-1-piperazineethanesulfonic acid) buffer at pH 8.0.
substance,measurement,setting,value
Diglycolamine phosphonate [DGAP],Relative Lipase Enzyme Activity in a Use Solution of the All Ash Detergent Composition,"all ash formula, phosphonate 0.3 wt-%, time 0 min",100.00%
same,Relative Lipase Enzyme Activity in a Use Solution of the All Ash Detergent Composition,"all ash formula, phosphonate 0.3 wt-%, time 5 min",87.31%
same,Relative Lipase Enzyme Activity in a Use Solution of the All Ash Detergent Composition,"all ash formula, phosphonate 0.3 wt-%, time 10 min",76.38%
same,Relative Lipase Enzyme Activity in a Use Solution of the All Ash Detergent Composition,"all ash formula, phosphonate 0.3 wt-%, time 20 min",57.74%
same,Relative Lipase Enzyme Activity in a Use Solution of the All Ash Detergent Composition,"all ash formula, phosphonate 0.3 wt-%, time 40 min",40.00%
same,Relative Lipase Enzyme Activity in a Use Solution of the All Ash Detergent Composition,"all ash formula, phosphonate 0.3 wt-%, time 60 min",33.56%
same,Relative Lipase Enzyme Activity in a Use Solution of the All Ash Detergent Composition,"all ash formula, phosphonate 0.3 wt-%, time 90 min",25.59%
same,Relative Lipase Enzyme Activity in a Use Solution of the All Ash Detergent Composition,"all ash formula, phosphonate 0.3 wt-%, time 120 min",21.03%
same,Relative Lipase Enzyme Activity in a Use Solution of the All Ash Detergent Composition,"all ash formula, phosphonate 0.3 wt-%, time 150 min",17.27%
same,Relative Lipase Enzyme Activity in a Use Solution of the All Ash Detergent Composition,"all ash formula, phosphonate 0.3 wt-%, time 180 min",14.06%
same,Relative Lipase Enzyme Activity in a Use Solution of the All Ash Detergent Composition,"all ash formula, phosphonate 0.3 wt-%, time 210 min",12.18%
same,Relative Lipase Enzyme Activity in a Use Solution of the All Ash Detergent Composition,"all ash formula, phosphonate 0.3 wt-%, time 240 min",10.79%
same,lipase stability in all ash formula,"all ash formula, versus same composition with PBTC or HEDP without amine(s), FIG. 6G",more stable
same,Relative Lipase Enzyme Activity,"phosphonate 0.3 wt-%, use solution at 120° F., time 0 min",100.00%
same,Relative Lipase Enzyme Activity,"phosphonate 0.3 wt-%, use solution at 120° F., time 5 min",83.54%
same,Relative Lipase Enzyme Activity,"phosphonate 0.3 wt-%, use solution at 120° F., time 10 min",88.25%
same,Relative Lipase Enzyme Activity,"phosphonate 0.3 wt-%, use solution at 120° F., time 20 min",77.15%
same,Relative Lipase Enzyme Activity,"phosphonate 0.3 wt-%, use solution at 120° F., time 40 min",62.99%
same,Relative Lipase Enzyme Activity,"phosphonate 0.3 wt-%, use solution at 120° F., time 60 min",52.84%
same,Relative Lipase Enzyme Activity,"phosphonate 0.3 wt-%, use solution at 120° F., time 90 min",43.46%
same,Relative Lipase Enzyme Activity,"phosphonate 0.3 wt-%, use solution at 120° F., time 120 min",35.40%
same,Relative Lipase Enzyme Activity,"phosphonate 0.3 wt-%, use solution at 120° F., time 150 min",31.10%
same,Relative Lipase Enzyme Activity,"phosphonate 0.3 wt-%, use solution at 120° F., time 180 min",22.42%
same,Relative Lipase Enzyme Activity,"phosphonate 0.3 wt-%, use solution at 120° F., time 210 min",24.78%
same,Relative Lipase Enzyme Activity,"phosphonate 0.3 wt-%, use solution at 120° F., time 240 min",22.08%
same,Relative Lipase Enzyme Activity,"phosphonate 0.6 wt-%, use solution at 120º F., time 0 min",100.00%
same,Relative Lipase Enzyme Activity,"phosphonate 0.6 wt-%, use solution at 120º F., time 5 min",95.36%
same,Relative Lipase Enzyme Activity,"phosphonate 0.6 wt-%, use solution at 120º F., time 10 min",100.58%
same,Relative Lipase Enzyme Activity,"phosphonate 0.6 wt-%, use solution at 120º F., time 20 min",94.94%
same,Relative Lipase Enzyme Activity,"phosphonate 0.6 wt-%, use solution at 120º F., time 40 min",93.85%
same,Relative Lipase Enzyme Activity,"phosphonate 0.6 wt-%, use solution at 120º F., time 60 min",86.18%
same,Relative Lipase Enzyme Activity,"phosphonate 0.6 wt-%, use solution at 120º F., time 90 min",76.99%
same,Relative Lipase Enzyme Activity,"phosphonate 0.6 wt-%, use solution at 120º F., time 120 min",71.87%
same,Relative Lipase Enzyme Activity,"phosphonate 0.6 wt-%, use solution at 120º F., time 150 min",72.77%
same,Relative Lipase Enzyme Activity,"phosphonate 0.6 wt-%, use solution at 120º F., time 180 min",64.17%
same,Relative Lipase Enzyme Activity,"phosphonate 0.6 wt-%, use solution at 120º F., time 210 min",63.68%
same,Relative Lipase Enzyme Activity,"phosphonate 0.6 wt-%, use solution at 120º F., time 240 min",56.85%
same,Relative Lipase Enzyme Activity,"phosphonate at 0.1% elemental phosphorus, at 120º F. or at room temperature (as titled), time 0 min",100.00%
same,Relative Lipase Enzyme Activity,"phosphonate at 0.1% elemental phosphorus, at 120º F. or at room temperature (as titled), time 5 min",88.13%
same,Relative Lipase Enzyme Activity,"phosphonate at 0.1% elemental phosphorus, at 120º F. or at room temperature (as titled), time 10 min",80.42%
same,Relative Lipase Enzyme Activity,"phosphonate at 0.1% elemental phosphorus, at 120º F. or at room temperature (as titled), time 20 min",74.76%
same,Relative Lipase Enzyme Activity,"phosphonate at 0.1% elemental phosphorus, at 120º F. or at room temperature (as titled), time 40 min",49.43%
same,Relative Lipase Enzyme Activity,"phosphonate at 0.1% elemental phosphorus, at 120º F. or at room temperature (as titled), time 60 min",46.05%
same,Relative Lipase Enzyme Activity,"phosphonate at 0.1% elemental phosphorus, at 120º F. or at room temperature (as titled), time 90 min",39.53%
same,Relative Lipase Enzyme Activity,"phosphonate at 0.1% elemental phosphorus, at 120º F. or at room temperature (as titled), time 120 min",34.69%
same,Relative Lipase Enzyme Activity,"phosphonate at 0.1% elemental phosphorus, at 120º F. or at room temperature (as titled), time 150 min",28.57%
same,Relative Lipase Enzyme Activity,"phosphonate at 0.1% elemental phosphorus, at 120º F. or at room temperature (as titled), time 180 min",25.49%
same,Relative Lipase Enzyme Activity,"phosphonate at 0.1% elemental phosphorus, at 120º F. or at room temperature (as titled), time 210 min",24.18%
same,Relative Lipase Enzyme Activity,"phosphonate at 0.1% elemental phosphorus, at 120º F. or at room temperature (as titled), time 240 min",22.78%
